Experimental data as given in patent US20250346602A1, “LACTAM SUBSTITUTED IMIDAZOPYRIDAZINE IL-17A MODULATORS AND USES THEREOF” (DICE ALPHA, INC., priority 2022, published 2025).

Target: T1, IL-17A/A (Homo sapiens, UniProt Q16552)
T1 construct: purchased Genscript Z03228
T1 sequence (Q16552 24-155): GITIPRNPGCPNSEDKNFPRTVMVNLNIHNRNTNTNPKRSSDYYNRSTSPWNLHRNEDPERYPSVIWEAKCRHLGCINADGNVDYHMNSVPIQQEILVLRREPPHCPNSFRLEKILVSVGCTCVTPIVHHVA
Test: IL-17A/A HEK-Blue cell assay
Type: cell-based
Conditions: HEK-Blue IL-17A reporter cell line (HEK 293), IL-17A/A stimulation, 20 hours incubation, SEAP read at A630
Procedure: The HEK-Blue IL-17A reporter cell line (Fisher #NC1408637) was used for cell-based IL-17A/A inhibition assays. Cells were grown and prepared for assays according to the manufacturer's instructions. This cell line consists of HEK 293 cells that were designed to expressed IL-17RA, IL-17RC, and the ActI adapter molecule, the combination of which, when stimulated by IL-17A/A activates a NFκB promoter and drives expression of a recombinant Secreted Alkaline Phosphatase (SEAP) gene protein. Media from the cells is then added to a development reagent (Quanti-Blue Substrate, Fisher #NC9711613), and read at A630.
Compounds were titrated in DMSO, with a top final compound concentration of 10 uM, 1 uM, or 0.3 uM, and added to the cells immediately before adding IL-17A/A (Genscript #Z03228). The cells, compound, and IL-17A/A were then incubated for 20 hours before media was removed for SEAP analysis. The resulting inhibition curve was then analyzed using Graphpad Prism 7.0, and IC50 values were determined using a 4-parameter nonlinear fit. DMSO was added to a universal final concentration of 0.1% to optimize background.

Row | Compound | IC50 [µM]
1 | CCn1nccc1C(=O)N[C@H](c1cn2nc(CC3C(=O)NCCC3C)ccc2n1)[C@H]1CC[C@H](C)CC1 (single isomer, unassigned) [Compound 52] | > 1
2 | CCn1nccc1C(=O)N[C@H](c1cn2nc(C(C)C3C[C@@H](C(F)(F)F)CNC3=O)ccc2n1)C(C1CC1)C1CC1 (single isomer, unassigned) [Compound 56] | > 1
3 | CCn1nccc1C(=O)N[C@H](c1cn2nc(C(C)C3C[C@@H](C(F)(F)F)CNC3=O)ccc2n1)C(C1CC1)C1CC1 (single isomer, unassigned) [Compound 57] | > 1
4 | CCn1nccc1C(=O)N[C@H](c1cn2nc(CC3CC(C(C)(F)F)NC3=O)ccc2n1)C1CCC(F)(F)CC1 (single isomer, unassigned) [Compound 68] | > 1
5 | CCn1nccc1C(=O)N[C@H](c1cn2nc(CC3CC(C(C)(F)F)NC3=O)ccc2n1)C1CCC(F)(F)CC1 (single isomer, unassigned) [Compound 69] | 0.1 to 1
6 | CCn1nccc1C(=O)N[C@H](c1cn2nc(CC3CC(C4CC4)CNC3=O)ccc2n1)C1CCC(F)(F)CC1 (single isomer, unassigned) [Compound 70] | 0.1 to 1
7 | CCn1nccc1C(=O)N[C@H](c1cn2nc(CC3CC(C4CC4)CNC3=O)ccc2n1)C1CCC(F)(F)CC1 (single isomer, unassigned) [Compound 71] | 0.1 to 1
8 | CCn1nccc1C(=O)N[C@H](c1cn2nc(CC3CC(F)(F)CNC3=O)c(NC)cc2n1)C1CCC(F)(F)CC1 (single isomer, unassigned) [Compound 73] | 0.1 to 1
9 | CCn1nccc1C(=O)N[C@H](c1cn2nc(CC3CC(F)(F)CNC3=O)c(NC)cc2n1)C1CCC(F)(F)CC1 (single isomer, unassigned) [Compound 74] | > 1
10 | CCn1nccc1C(=O)N[C@H](c1cn2nc(CC3CC(F)(F)CNC3=O)c(C)cc2n1)C1CCC(F)(F)CC1 (single isomer, unassigned) [Compound 76] | 0.1 to 1

The next lines start with the values.

Row | IC50 [µM] | Compound
11 | 0.1 to 1 | CCn1nccc1C(=O)NC(c1cn2nc(CC3CC(C)CNC3=O)ccc2n1)C1CCC(C)CC1 (single isomer, unassigned) [Compound 51]
12 | 0.1 to 1 | CCn1nccc1C(=O)N[C@H](c1cn2nc(CC3C(=O)NCCC3C)ccc2n1)[C@H]1CC[C@H](C)CC1 (single isomer, unassigned) [Compound 53]
13 | 0.1 to 1 | CCn1nccc1C(=O)N[C@H](c1cn2nc(CC3C(=O)NCCC3C)ccc2n1)[C@H]1CC[C@H](C)CC1 (single isomer, unassigned) [Compound 54]
14 | 0.1 to 1 | CCn1nccc1C(=O)N[C@H](c1cn2nc(C(C)C3C[C@@H](C(F)(F)F)CNC3=O)ccc2n1)C(C1CC1)C1CC1 (single isomer, unassigned) [Compound 55]
15 | 0.1 to 1 | CCn1nccc1C(=O)N[C@H](c1cn2nc(C(COC)C3C[C@@H](C(F)(F)F)CNC3=O)ccc2n1)C(C1CC1)C1CC1 (single isomer, unassigned) [Compound 62]
16 | 0.1 to 1 | CCn1nccc1C(=O)N[C@H](c1cn2nc(CC3C[C@@H](C)NC3=O)ccc2n1)[C@H]1CC[C@H](C)CC1 (single isomer, unassigned) [Compound 63]
17 | 0.1 to 1 | CCn1nccc1C(=O)N[C@H](c1cn2nc(CC3CC4(CC4)CNC3=O)ccc2n1)[C@H]1CC[C@H](C)CC1 (single isomer, unassigned) [Compound 64]
18 | 0.1 to 1 | CCn1nccc1C(=O)N[C@H](c1cn2nc(CC3CC(CC(F)(F)F)CNC3=O)ccc2n1)C1CCC(F)(F)CC1 (single isomer, unassigned) [Compound 65]
19 | 0.1 to 1 | CCn1nccc1C(=O)N[C@H](c1cn2nc(CC3CC(CC(F)(F)F)CNC3=O)ccc2n1)C1CCC(F)(F)CC1 (single isomer, unassigned) [Compound 66]
20 | 0.1 to 1 | CCn1nccc1C(=O)N[C@H](c1cn2nc(CC3(C)C[C@@H](C(F)(F)F)CNC3=O)ccc2n1)[C@H]1CC[C@H](C)CC1 (single isomer, unassigned) [Compound 67]
